Assays:
heparanase [1] = assay: Plasma heparanase level (ELISA), CLP septic mice; type: in vivo, murine; settings: CLP-mice (NMRI), 24 h after CLP, peptide i.v. infusion 20 μg/ml, 100 μl/h vs NaCl 0.9%, n = 6 per group, Fig 1A, ***p < 0.0001
Method: (§1) Heparanase levels in human and murine plasma were measured using a commercial ELISA kit (No.: E03H0100, AMS Biotechnology, Oxon, United Kingdom) according to the manufacturer’s instructions. The ELISA´s detection range is 1.0 ng/ml– 5000 ng/ml.
(§2) The murine model of polymicrobial sepsis was divided into three steps as described before. Briefly, in a first step 12 NMRI mice underwent a catheterization procedure under general (isoflurane 1% to 2% in oxygen/air mix with a FiO2 of 0.3) and local (0.2 ml lidocaine 2%) anesthesia. A central vein catheter (PE-tube, self-made) was implanted in the jugular vein. After further local infiltration with lidocaine, the neck was closed by single suture. To prevent hypothermia all animals were kept on a heating pad throughout the surgical procedure. Mice were transferred back into the cage to rest for 48h. The i.v.-line was connected to the syringe pump at a rate of 100 μl/h (NaCl 0.9%).
(§3) In a second step, general and local anesthesia for cecal ligature and puncture (CLP) was performed as described above. The animal were transferred to the cage and reconnected with the i.v.-line. Depending on the group, peptide 19–2.5 infusion (20 μg/ml, 100 μl/h) or NaCl 0.9% infusion (100 μl/h) was started.
Finally, in a third step all animals were killed 24 h after CLP. […]

[2] = design: method as in PMID 22457281; settings: after incubating HS with peptide 19–2.5; cited from earlier work
heparanase [3] = assay: Plasma heparanase level (ELISA), human plasma, peptide added ex vivo; type: biochemical; settings: 20 μg/ml peptide ex vivo, Fig 1B, n.s.
Method: (§4) As described before, we used plasma from 18 adult individuals within 24 hours after presentation with septic shock, according to the ACCP/SCCM definition after written informed consent of patients or their legal representative. Individuals below 18 years were excluded. Furthermore, we used plasma from healthy human donors after written informed consent (n = 10). No personal or identifying information was collected from study participants. All samples are stored in the RWTH centralized Biomaterial Database (RWTH cBMB) of the University Hospital RWTH Aachen. The local ethics committee (University Hospital RWTH Aachen, EK 206_09) approved this study before inclusion of the first individual.
as §1

heparanase [4] = assay: Plasma heparanase activity, CLP septic mice; type: in vivo, murine; settings: CLP-mice (NMRI), 24 h after CLP; peptide i.v. infusion 20 μg/ml, 100 μl/h vs NaCl 0.9%; n = 6 per group; Fig 3A
Method: (§5) Heparanase activity in human and murine plasma was quantified using the commercial available Heparanase Assay Kit (No.: Ra001-BE-K, AMS Biotechnology, Oxon, United Kingdom) according to the manufacturer’s instructions.
as §2, §3
Finally, in a third step all animals were killed 24 h after CLP. Therefore, the animals were anesthetized as described above, brought to a prone position and the abdomen and thorax were opened. […]

[5] = Circulating HS-fragments in plasma (ELISA), CLP septic mice; type: in vivo, murine; settings: CLP-mice (NMRI), 24 h after CLP, peptide i.v. infusion 20 μg/ml, 100 μl/h vs NaCl 0.9%, n = 6 per group, Fig 4, ***p < 0.0001
Method: Levels of circulating HS-fragments in murine plasma were measured using a commercial ELISA kit (No.: E0623Ge, AMS Biotechnology, Oxon, United Kingdom) according to the manufacturer’s instructions. Circulating HS-fragments in plasma were defined by the sum of the HS derived disaccharides obtained after enzymatic cleavage by heparanase. Due to the ELISA´s detection range of 4.69 ng/ml– 300 ng/ml samples were diluted 1:30 in physiological saline (0.9%). The sensitivity of the ELISA is 1.17ng/ml.
as §2
In a second step, general and local anesthesia for cecal ligature and puncture (CLP) was performed as described above. The animal were transferred to the cage and reconnected with the i.v.-line. […]

[6] = cited from earlier work
From the text: Since heparanase is the major mammalian enzyme liberating circulating HS-fragments, we investigated heparanase activity in mice subjected to CLP. […] Additionally, the inhibition of heparanase is lung-protective in murine sepsis. Recently, it was sh ...

heparanase [7] = assay: Plasma heparanase activity, human plasma, peptide added ex vivo; type: biochemical; settings: 20 μg/ml peptide ex vivo, Fig 3B
Method: as §4, §5

heparanase [8] = assay: Isothermal titration calorimetry, binding to heparanase; settings: ITC, 37°C
Method: Isothermal titration calorimetry (ITC) experiments were performed as previously described. Briefly, the binding of peptide 19–2.5 to heparanase or HS-fragments was recorded by measuring the enthalpy change of the reaction at 37°C. For this, a total of 100 μg/ml heparanase (R&D Systems Europe Ltd., Abingdon, United Kingdom) and 200 μg/ml HS-fragments (H7640 Sigma-Aldrich, St. Louis, MO, USA) were dispersed into the calorimetric cell, and 2 mM peptide 19–2.5 was titrated to this dispersion stepwise in 3 μl portions. After exploring experiments, the concentration of HS was 100 μg/ml titrated with 1.5 μl of peptide 19–2.5 (2 mM) 20 times at 37°C.
Fig 5 Isothermal titration calorimetry (ITC). For the ITC experiments, 2 mM peptide 19–2.5 was titrated to this dispersion stepwise in 3 μl portions into (A) 200 μg/ml heparan sulfate-fragments (HS) and (B) 100 μg/ml heparanase (Hep). In each titration, the resulting heat signals P were recorded (peak downwards are exothermic, peaks upwards endothermic reactions) against time (min) and presented in the top parts of Fig 5A and 5B. The integrated enthalpy changes ΔH versus [peptide]:[HS-fragments] (A) and [peptide]:[heparanase] (B) concentration ratios of the single titrations are illustrated in the bottom parts of Fig 5A and 5B.

[9] = plasma of septic shock patients (n = 18)
[10] = 2 mM peptide in 3 μl portions into 100 μg/ml heparanase, Fig 5B
[11] = heparanase (Fig 5B) compared with HS-fragments (Fig 5A)

peptide 19–2.5: synthetic antimicrobial peptide 19–2.5 belongs to the class of synthetic anti-lipopolysaccharide peptides (SALP = synthetic anti-LPS peptides)
plasma heparanase level, untreated CLP-mice vs peptide-treated (heparanase [1]): significantly higher levels of plasma heparanase compared to mice treated with peptide 19–2.5
effect on peptide secondary structure and on HS hydration and sulfation status [2]: alteration of the peptide’s secondary structure and a characteristic change in the hydration and sulfation status of HS
plasma heparanase level after ex vivo addition of peptide (heparanase [3]; plasma of healthy human volunteers (n = 10)): did not influence heparanase levels
plasma heparanase level after ex vivo addition of peptide (heparanase [3]; [9]): did not influence heparanase levels
plasma heparanase activity vs untreated control (heparanase [4]): significant lower heparanase activity compared to untreated control animals
levels of circulating HS-fragments in plasma vs untreated control [5]: significantly decreased in CLP-mice treated with peptide 19–2.5 compared to untreated control animals
effect on LPS aggregate structure and pro-inflammatory effects [6]: changes the aggregate structure of LPS thereby neutralizing the pro-inflammatory effects of LPS
plasma heparanase activity after ex vivo addition of peptide (heparanase [7]; plasma of healthy humans (n = 10), n.s.): did not alter heparanase activity
plasma heparanase activity after ex vivo addition of peptide (heparanase [7]; [9]): significantly lowered heparanase activity
enthalpy change (ΔH) at the beginning of the titration (heparanase [8]; [10]): approximately −25 kJ/mol
heat of reaction on titration to heparanase (heparanase [8]; [10]): exothermic reaction
ΔH value at high peptide concentrations (heparanase [8]; [10]): around 12 kJ/mole
binding constant for heparanase (heparanase [8]; 2 mM peptide into 100 μg/ml heparanase, Fig 5B): does not allow calculating a binding constant
saturation character of ΔH values (heparanase [8]; 2 mM peptide into 100 μg/ml heparanase, no sigmoidal curve, Fig 5B): do not have a saturation character
peptide concentrations at which the processes take place vs HS-fragments (heparanase [8]; [11]): orders of magnitude higher than those for the interaction with HS-fragments
ΔH values at the beginning of the titration vs HS-fragments (heparanase [8]; [11]): much lower than those for the HS-fragments titration

Reference: publication PMC4658182, “The Synthetic Antimicrobial Peptide 19-2.5 Interacts with Heparanase and Heparan Sulfate in Murine and Human Sepsis” (PLoS ONE, 2015)
